A word on the LD50: it is the dose expected to kill half of the subjects tested.

Data set [1] deals with S180 sarcoma. Conditions: Dosage 1 mg/kg, i.v., S180 sarcoma-bearing mice. The text has this: (§1) (1) Sample: 3,4,5,4′-tetramethoxyl-α,β-diphenylethane-3′-O-sodium sulphate (AS) provided by Zhejiang Cell Biomedical Research Co., Ltd., and prepared by the process in Example One. Dissolved by physiological saline for the concentration needed.
(2) Control product: Cyclophosphamide for injection (CTX), Jiangsu Hengrui Pharmaceutical Inc. Co. Batch No.: 04123021 Dissolved by physiological saline for preparation.
(§2) (1) KM mouse bearing S180 sarcoma.
(2) 50 KM mice, female, weighting 18-22 g, provided by Zhejing College of Traditional Chinese Medicine.
(1) Drawing ascites under aseptic condition from mouse bearing S180 sarcoma, diluting with physiologic saline 1:3, giving subcutaneous inoculation in the armpit of the right forelimb of the KM mice with 0.2 ml each; dividing the mice into 5 groups randomly the next day, 10 in each group.
(§3) (2) Administering drug to the mice by weight the third day of inoculation, intravenous administration 0.5 ml/20 g […], by weight, and putting them to death on the 11th day after inoculation, weighing the tumor and calculating the rate of tumor inhibition.
(§4) (3) dosage (mg/kg/d) and means of administration:
(§5) AS: 50 mg/kg, tail vein injection
(§6) AS: 100 mg/kg, tail vein injection
(§7) AS: 200 mg/kg, tail vein injection
(§8) CTX: 30 mg/kg, tail vein injection
(§9) Setting up another blank control group, tail vein injection of 0.9% NaCl 0.5 ml.
(§10) (4) Judging the result with the following formula: […]

The test system of data set [2] is S180 sarcoma. Conditions: i.v., S180 sarcoma-bearing mice.
Text: as §1
(2) Cisplatin: Cisplatin for injection (DDP), Qilu Pharmaceutical Co., Ltd. Batch No.: 5120282DC. Dissolved by physiological saline for preparation.
(3) Control product: Cyclophosphamide for injection (CTX), Jiangsu Hengrui Pharmaceutical Inc. Co. Batch No.: 04123021 Dissolved by physiological saline for preparation.
as §2
(2) 70 KM mice, female, weighting 18-22 g, provided by Zhejing College of Traditional Chinese Medicine.
(1) Drawing ascites under aseptic condition from mouse bearing S180 sarcoma, diluting with physiologic saline 1:3, giving subcutaneous inoculation in the armpit of the right forelimb of the KM mice with 0.2 ml each; dividing the mice into 7 groups randomly the next day, 10 in each group.
as §3, §4, §5, §6, §7
DDP: 1 mg/kg, tail vein injection
AS+DDP: 50 mg/kg+1 mg/kg, tail vein injection
as §8, §9, §10

The subject of data set [3] is Lewis lung cancer. Kind of data set: Joint administration of AS and DDP, murine model of Lewis lung cancer (Example Five). It is filed as in vivo, C57BL/6J mice. Conditions: mice bearing Lewis lung cancer.
Text: (1) Sample: 3,4,5,4′-tetramethoxyl-α,β-diphenylethane-3′-O-sodium sulphate (AS), raw material medicine, provided by Zhejiang Cell Biomedical Research Co., Ltd., and prepared by the process in Example One. Batch No.: 061025. Dissolved by physiological saline for the concentration needed.
(2) Cisplatin: Cisplatin for injection (DDP), Qilu Pharmaceutical Co., Ltd. Batch No.: 5120282DC; Dissolved by physiological saline for preparation
(3) Control product: Cyclophosphamide for injection (CTX), Jiangsu Hengrui Pharmaceutical Inc. Co. Batch No.: 04123021. Dissolved by physiological saline for preparation.
(1) C57BL/6J mouse bearing Lewis lung cancer
(2) 70 C57BL/6J mice, female, weighing 17-21 g. Provided by the animal house of Zhejiang Cell Biomedical Research Co., Ltd.
(1) Taking tumor from C57BL/6J mouse under aseptic condition, grinding and diluting it by physiological saline 1:3 (weight:volume), and giving hypodermic inoculation 0.2 ml per mouse in the armpit of the right forelimb of each mouse. dividing the mice into 7 groups randomly the next day, 10 in each group.
(2) After inoculation, waiting till the tumor has grown to the accessible size, administering medicine according to body weight, 0.5 ml/20 g intravenous, for 11 days, putting the mice to death on the 19th after inoculation, taking out and weighing the tumor, and calculating the tumor inhibiting rate.
as §10

For data set [4] the following is noted: background statement, species and route not given; cited from earlier work.

Structures are written as SMILES. Read-outs that look alike come from different tables or passages of the source.

`O=P1(N(CCCl)CCCl)NCCCO1` (stereo not drawn) [CTX, Cyclophosphamide, reference compound]: in data set [1], the 0 d weight is 21.18 ± 0.64 g, the “11 d weight without tumor” value is 26.28 ± 1.72 g, the “Tumor inhibiting rate %” value turned out to be 69% and the Tumor weight turned out to be 0.90 ± 0.26 g. For the same molecule, in data set [2] (Dosage 1 mg/kg), the 0 d weight came out at 21.18 ± 0.64 g, the “11 d weight without tumor” value is listed as 26.28 ± 1.72 g, the “Tumor inhibiting rate %” value stood at 69% and the Tumor weight is 0.90 ± 0.26 g. Also, in data set [3] (Dosage 30 mg/kg, i.p.), the “Tumor inhibiting rate %” value was found to be 64.3% and the Tumor weight was determined as 1.68 ± 0.15 g.

On to `COc1ccc(/C=C\c2cc(OC)c(OC)c(OC)c2)cc1O` [Combretastatin A-4], for which the LD50 in data set [4] is reported as 500 mg/kg.

As for `N.N.[Cl][Pt][Cl]` [DDP, Cisplatin, reference compound], in data set [2] (Dosage 30 mg/kg), the “Tumor inhibiting rate %” value came to 70% and the Tumor weight is given as 0.88 ± 0.50 g. In addition, in data set [3] (Dosage 1 mg/kg, i.v.), the “Tumor inhibiting rate %” value was found to be 46.4% and the Tumor weight is listed as 2.52 ± 0.80 g.

Source of the values: patent US7632863B2, “3,4,5,4′-tetramethoxyl-α,β-diphenylethane-3′-O-sodium sulphate and its use” (The Jian Cell Biomedical Research Co., Ltd., priority 2007, dated 2009).
